Data from publication PMC2800054 (Journal of medicinal chemistry, 2008).
Converted amounts (≈) assume the structure as drawn.

Experiments:
MbtA [1] = molecular target: T1, MbtA (Mycobacterium tuberculosis, UniProt P71716); assay type: biochemical; settings: for fold increase in potency / binding affinity (KI^app) relative to 6 / fold loss of potency (KI^app) relative to 6: relative to parent compound 6
[2] = molecular target: cysteine adenylation domain in the multifunctional NRPS module known as HMWP2; settings: read-out: Ki^app; cited from earlier work
MbtA [3] = molecular target: T1, MbtA; assay type: binding; settings: ITC
M. tuberculosis H37Rv [4] = experiment: M. tuberculosis H37Rv MIC assay; assay type: cell-based, Mycobacterium tuberculosis; settings: ratio of selectivity factors
[5] = cited from earlier work
[6] = cited from earlier work; remark: listed apart in the source
protein synthesis = settings: read-out: IC50 (inhibition of protein synthesis); in vitro protein translation assay
M. tuberculosis H37Rv [7] = settings: under the assay conditions; positive control; cited from earlier work
MbtA [8] = molecular target: T1, MbtA; settings: cited from earlier work; for ΔG^0 (free energy of binding): acyladenylate fragments
[9] = saturating salicylic acid, 298 K

T1 sequence (P71716 whole entry, the tested form may be a part): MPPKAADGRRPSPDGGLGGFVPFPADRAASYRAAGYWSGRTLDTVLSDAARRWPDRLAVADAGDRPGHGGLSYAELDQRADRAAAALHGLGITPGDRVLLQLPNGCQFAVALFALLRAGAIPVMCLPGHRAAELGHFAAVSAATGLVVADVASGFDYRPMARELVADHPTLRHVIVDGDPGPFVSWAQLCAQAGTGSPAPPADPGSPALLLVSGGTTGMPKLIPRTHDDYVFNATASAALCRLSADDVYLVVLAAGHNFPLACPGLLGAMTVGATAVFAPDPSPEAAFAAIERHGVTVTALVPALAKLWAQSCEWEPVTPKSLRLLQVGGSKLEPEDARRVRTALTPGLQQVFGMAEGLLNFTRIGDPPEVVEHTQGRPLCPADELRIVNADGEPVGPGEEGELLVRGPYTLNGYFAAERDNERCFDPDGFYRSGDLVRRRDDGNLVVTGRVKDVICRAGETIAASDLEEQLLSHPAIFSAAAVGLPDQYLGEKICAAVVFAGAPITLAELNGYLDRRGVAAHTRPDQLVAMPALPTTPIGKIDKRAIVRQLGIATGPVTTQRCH

Compound: CCN(CC)CC.Nc1nc(C#Cc2ccccc2)nc2c1ncn2[C@@H]1O[C@H](COS(=O)(=O)NC(=O)c2ccccc2O)[C@@H](O)[C@H]1O [Compound 25, 5′-O-[N-(2-Hydroxybenzoyl)sulfamoyl]-2-(phenylethynyl)adenosine Triethylammonium Salt]
- fold increase in potency / binding affinity (KI^app) relative to 6 (MbtA [1]): 17 fold

Compound: Nc1nc(-c2ccccc2-c2ccccc2)nc2c1ncn2[C@@H]1O[C@H](COS(=O)(=O)[N-]C(=O)c2ccccc2O)[C@@H](O)[C@H]1O.[Na+] [Compound 27, 2-(Biphen-2-yl)-5′-O-[N-(2-hydroxybenzoyl)sulfamoyl]adenosine Sodium Salt]
- fold loss in potency compared to 26 (MbtA [1]; 27 compared to 26): 174 fold

Compound: Nc1ncnc2c1ncn2[C@@H]1O[C@H](COS(=O)(=O)NC(=O)[C@@H](N)CS)[C@@H](O)[C@H]1O [cysteyl-AMS]
- Ki [2]: 240 nM

Compound: CCN(CC)CC.Nc1ncnc2c1ccn2[C@@H]1O[C@H](COS(=O)(=O)NC(=O)c2ccccc2O)[C@@H](O)[C@H]1O [Compound 7, 7-Deaza-5′-O-[N-(2-hydroxybenzoyl)sulfamoyl]adenosine Triethylammonium Salt]
- fold loss of potency (KI^app) relative to 6 (MbtA [1]): 4 fold

Compound: CCN(CC)CC.Nc1nc(-c2ccccc2)nc2c1ncn2[C@@H]1O[C@H](COS(=O)(=O)NC(=O)c2ccccc2O)[C@@H](O)[C@H]1O [Compound 26, 5′-O-[N-(2-Hydroxybenzoyl)sulfamoyl]-2-phenyladenosine Triethylammonium Salt]
- ΔG^0 (MbtA [3]): -17.5 kcal/mol
- ΔH (MbtA [3]; [9]): -15.9 ± 0.6 kcal/mol
- −TΔS (MbtA [3]; [9]): -1.6 ± 1.4 kcal/mol

Compound: CCN(CC)CC.Nc1nc(Nc2ccccc2)nc2c1ncn2[C@@H]1O[C@H](COS(=O)(=O)NC(=O)c2ccccc2O)[C@@H](O)[C@H]1O [Compound 24, 2-Anilino-5′-O-[N-(2-hydroxybenzoyl)sulfamoyl]adenosine Triethylammonium Salt]
- fold increase in potency / binding affinity (KI^app) relative to 6 (MbtA [1]): 7 fold

Compound: O=C([N-]S(=O)(=O)OC[C@H]1O[C@@H](n2cnc3c(NC4CCC4)ncnc32)[C@H](O)[C@@H]1O)c1ccccc1O.[Na+] [Compound 17, N^6-Cyclobutyl-5′-O-[N-(2-hydroxybenzoyl)sulfamoyl]adenosine Sodium Salt]
- fold loss of potency (KI^app) relative to 6 (MbtA [1]): 124 fold

Compound: CCN(CC)CC.O=C(NS(=O)(=O)OC[C@H]1O[C@@H](n2cnc3c(NC4CC4)ncnc32)[C@H](O)[C@@H]1O)c1ccccc1O [Compound 16, N^6-Cyclopropyl-5′-O-[N-(2-hydroxybenzoyl)sulfamoyl]adenosine Triethylammonium Salt]
- fold increase in potency / binding affinity (KI^app) relative to 6 (MbtA [1]): 3.5 fold
- enhancement in selectivity S relative to Sal-AMS 6 (M. tuberculosis H37Rv [4]): 16 fold

Compound: CC(C)CNc1ncnc2c1ncn2[C@@H]1O[C@H](COS(=O)(=O)[N-]C(=O)c2ccccc2O)[C@@H](O)[C@H]1O.[Na+] [Compound 15, 5′-O-[N-(2-Hydroxybenzoyl)sulfamoyl]-N^6-isobutyladenosine Sodium Salt]
- fold loss of potency (KI^app) relative to 6 (MbtA [1]): 1140 fold

Compound: 5′-O-[N-(salicyl)sulfamoyl]adenosine [Compound 6]
- stability in human liver microsomes [5]: stable
- stability in human plasma [6]: stable
- IC50 (protein synthesis): > 100000 nM

Compound: CCN(CC)CC.O=C(NS(=O)(=O)OC[C@H]1O[C@@H](n2cnc3c(=O)[nH]cnc32)[C@H](O)[C@@H]1O)c1ccccc1O [Compound 9, 5′-O-[N-(2-Hydroxybenzoyl)sulfamoyl]inosine Triethylammonium Salt]
- fold loss of potency (KI^app) relative to 6 (MbtA [1]): 121 fold

Compound: CCN(CC)CC.CN(C)c1ncnc2c1ncn2[C@@H]1O[C@H](COS(=O)(=O)NC(=O)c2ccccc2O)[C@@H](O)[C@H]1O [Compound 10, 5′-O-[N-(2-Hydroxybenzoyl)sulfamoyl]-N^6,N^6′-dimethyladenosine Triethylammonium Salt]
- fold activity difference between N-6-dimethyl 10 and N-6-methyl 11 (MbtA [1]; 10 versus 11): ~ 238 fold
- fold loss of potency (KI^app) relative to 6 (MbtA [1]): 58 fold

Compound: NNC(=O)c1ccncc1 [isoniazid]
- MIC99 (M. tuberculosis H37Rv [7]): 0.18 µM (≈ 0.0247 µg/mL)

Compound: O=C(O)c1ccccc1O [salicylic acid]
- ΔG^0 (free energy of binding) (MbtA [8]): -7.9 kcal/mol
- KA(Sal) (MbtA [8]; association constant with MbtA): 664000 M⁻¹
- ΔH(Sal) (MbtA [8]; enthalpy with MbtA): -6.77 kcal/mol
- Kd (MbtA [8]; weak ligand for ITC displacement): 1630 ± 520 nM

Compound: Nc1ncnc2c1ncn2[C@@H]1O[C@H](COP(=O)(O)O)[C@@H](O)[C@H]1O [AMP, adenosine monophosphate]
- ΔG^0 (free energy of binding) (MbtA [8]): -5.0 kcal/mol

Compound: CCN(CC)CC.Nc1nc(I)nc2c1ncn2[C@@H]1O[C@H](COS(=O)(=O)NC(=O)c2ccccc2O)[C@@H](O)[C@H]1O [Compound 23, 5′-O-[N-(2-Hydroxybenzoyl)sulfamoyl]-2-iodoadenosine Triethylammonium Salt]
- fold increase in potency / binding affinity (KI^app) relative to 6 (MbtA [1]): 2 fold
